Where a name gives a salt, the structure may show the parent alone.
Key:
[1] = Non-hygroscopicity evaluation (water content by Karl-Fisher titrator after exposure to humid air); type: physicochemical; settings: for moisture absorption (in words): humid atmosphere of 95% relative humidity
Method: Then, the water content of the samples was measured using a Karl-Fisher titrator. In Table 4, the water content of an active ingredient is expressed as a percentage of water content by weight (weight %).

[2] = Stability to light (fluorescent light at 25° C., ICH light stability chamber, residual proportion by HPLC); type: physicochemical; settings: for residual proportion of the initial level of active ingredient: fluorescent light, 25° C.; for photostability (in words): compared with sibutramine hydrochloride monohydrate
Method: (§1) The stability of an active ingredient used in a pharmaceutical composition to heat and light is a very important physical property during formulation into tablets and capsules and long-term storage. […] In detail, each compound was stored at 60° C. After 1, 2 and 4 weeks, the residual proportion of the initial level of an active ingredient was measured by high performance liquid chromatography (HPLC). Also, fluorescent light was radiated at 25° C. using a light stability test chamber suitable for the ICH guideline, and after 1, 2 and 4 weeks, the residual proportion of the initial level of an active ingredient was measured by HPLC.

[3] = Stability to heat (storage at 60° C., residual proportion by HPLC); type: physicochemical; settings: for residual proportion of the initial level of active ingredient: 60° C.; for heat stability (in words): compared with sibutramine hydrochloride monohydrate
Method: as §1

[4] = Solubility evaluation in distilled water and at several pH values; settings: 37 °C, thermodynamic from solid
mouse = settings: cited from earlier work
rat = settings: cited from earlier work
[5] = 75% relative humidity at 25° C., 3 days
[6] = 95% relative humidity at 25° C., 1 week

Compound	residual proportion of the initial level of active ingredient ([2]; 1 week)	residual proportion of the initial level of active ingredient ([2]; 2 weeks)	residual proportion of the initial level of active ingredient ([2]; Initial)	residual proportion of the initial level of active ingredient ([3]; 1 week)	residual proportion of the initial level of active ingredient ([3]; 2 weeks)	residual proportion of the initial level of active ingredient ([3]; 4 weeks)	residual proportion of the initial level of active ingredient ([3]; Initial)	water content (weight %) [1, 5]	water content (weight %) [1, 6]	water content (weight %) ([1]; Initial)	moisture absorption (in words) [1]	photostability (in words) [2]	residual proportion of the initial level of active ingredient ([2]; 4 weeks)	heat stability (in words) [3]	other results
CC(C)CC(N(C)C)C1(c2ccc(Cl)cc2)CCC1 (centres unmarked) [Sibutramine HCl monohydrate, Sibutramine hydrochloride monohydrate, reference compound]	1.000	0.999	1.000	1.000	0.999	0.999	1.000								water content (weight %) ([1]; 75% relative humidity at 25° C., 3 days, hydrochloride monohydrate): 5.49%; water content (weight %) ([1]; 95% relative humidity at 25° C., 1 week, hydrochloride monohydrate): 5.5%; water content (weight %) ([1]; Initial, hydrochloride monohydrate): 5.49%; residual proportion of the initial level of active ingredient ([2]; 4 weeks, hydrochloride monohydrate): 0.998; solubility ([4]; pH 1.2, simulated gastric fluid): 13.4 mg/mL; solubility ([4]; pH 4, aqueous buffer): 9.58 mg/mL; solubility ([4]; pH 5.3, aqueous buffer): 6.58 mg/mL; solubility ([4]; pH 6.8, aqueous buffer): 23.1 mg/mL; solubility ([4]; pH 7.4, aqueous buffer): 9.2 mg/mL; solubility ([4]; distilled water, water): 26.2 mg/mL
CC(C)CC(N(C)C)C1(c2ccc(Cl)cc2)CCC1 (centres unmarked) [Sibutramine malonate, sibutramine malonate]	1.000	0.999	1.000	1.000	0.999	0.999	1.000	0.02%	0.03%	0.03%	did not absorb moisture	equal to those of sibutramine hydrochloride monohydrate	0.999	equal to those of sibutramine hydrochloride monohydrate	
CC(C)CC(N(C)C)C1(c2ccc(Cl)cc2)CCC1 (centres unmarked) [Sibutramine oxalate, sibutramine oxalate]	1.000	0.999	1.000	1.000	0.999	0.999	1.000	0.03%	0.02%	0.02%	did not absorb moisture	equal to those of sibutramine hydrochloride monohydrate	0.999	equal to those of sibutramine hydrochloride monohydrate	
Cl [HCl, hydrochloric acid]															LD50 in mouse (i.p.) (mouse): 40 mg/kg; LD50 in rat (oral) (rat): 900 mg/kg

Reference: US7393977B2, “Dicarboxylic acid salt of sibutramine” (CJ Cheiljedang Corporation, priority 2005, dated 2008)
